Assay results published in US20120122840A1, “COMPOUNDS AND THERAPEUTIC USES THEREOF” (Myrexis, Inc., priority 2009, published 2012).

How the values were obtained:
[1] = target: FER (Homo sapiens, UniProt P16591); experiment: In vitro binding assays
[2] = target: T1, Aurora A (Homo sapiens, UniProt O14965); experiment: Direct target affinity purification (DTAP) from cell lysates; format: binding; conditions: compound coupled to Sepharose beads
T1 sequence (O14965 1-403): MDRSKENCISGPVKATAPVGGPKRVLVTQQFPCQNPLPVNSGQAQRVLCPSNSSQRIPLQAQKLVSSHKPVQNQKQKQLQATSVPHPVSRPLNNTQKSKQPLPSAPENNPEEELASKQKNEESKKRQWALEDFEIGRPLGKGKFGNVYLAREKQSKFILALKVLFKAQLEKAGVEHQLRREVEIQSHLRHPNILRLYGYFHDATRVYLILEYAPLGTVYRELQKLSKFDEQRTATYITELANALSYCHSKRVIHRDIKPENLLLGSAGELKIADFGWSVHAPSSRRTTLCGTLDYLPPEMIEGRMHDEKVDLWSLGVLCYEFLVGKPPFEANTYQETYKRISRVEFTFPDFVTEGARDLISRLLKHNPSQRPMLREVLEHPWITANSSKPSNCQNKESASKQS
Excerpt: Direct target affinity purification (DTAP) was used to investigate (1) the selectivity of compounds of the invention for TTK, relative to other kinases, and (2) the importance of a specific methyl substituent in providing that selectivity.
In preparation for DTAP studies, the two compounds depicted above were synthesized with an alkyl-amine linker to allow covalent coupling to epoxy-activated Sepharose 6B beads (GE Healthcare, Piscataway, N.J.). Sepharose beads were swollen and washed with water for 30 min followed by equilibration in coupling buffer (50% dimethylformamide, 50 mM Na2CO3). Beads were pelleted by centrifugation (15 sec at 2000×g) and the supernatant removed by aspiration. An equal volume of coupling buffer containing the linkered test compound was used to resuspend the beads. Compound concentrations in the coupling reaction ranged from 0.1 mM to 12.5 mM. The coupling reactions were incubated at 34° C. for 18 hrs on a rotator mixer. Ethanolamine was added to 1 M for the final 1 hr to quench the coupling reaction. Beads were washed extensively with binding buffer (1 M NaCl, 50 mM Hepes [pH 7.4], 1% Triton X-100, 1 mM EDTA and 1 mM dithiothreitol) to remove residual coupling reagents, and were then stored at 4° C.
Cellular proteins were prepared by mild sonication in lysis buffer (150 mM NaCl, 50 mM Hepes [pH 7.4], 1% Triton X-100, 1 mM EDTA and 2 mM dithiothrietol containing 1× Halt™ protease and phosphatase inhibitor cocktail [Thermo Fisher Scientific, Rockford, Ill.]). Lysates were centrifuged (20,000×g for 20 min) to remove debris, diluted to a protein concentration of ˜5 mg/ml, divided into aliquots, and stored at −80° C.
For DTAP reactions, cell lysates (˜0.5 ml per binding reaction) were thawed and the NaCl concentration adjusted to 1 M. Competitor compounds dissolved in DMSO (or a DMSO control) were then added to the lysate and incubated on ice for 5 min. The lysates were centrifuged at 20,000×g for 10 min and the cleared supernatant was transferred to a tube containing 50 μl of coupled beads. The binding reactions were incubated on a rotator mixer at 4° C. for 2 hrs, after which the beads were pelleted by centrifugation and the supernatant removed by aspiration. The beads were washed three times with 20 volumes of binding buffer, 2× with 20 volumes wash buffer (150 mM NaCl, 50 mM Hepes [pH 7.4], 1% Tween 20, 1 mM EDTA, 2 mM dithiothrietol) and finally twice with 10 volumes of 150 mM NaCl, 50 mM Hepes [pH 7.4].
During the final wash, an aliquot containing 10 μl of beads was transferred to a separate tube and resuspended with 15 μl of 2× SDS/PAGE loading buffer (Invitrogen Corporation, Carlsbad, Calif.) for 5 min at 90° C. The eluted proteins were resolved by electrophoresis on a NuPage 4-12% Bis-Tris Gel (Invitrogen Corporation, Carlsbad, Calif.) and visualized by staining with Ruby Red (Invitrogen Corporation, Carlsbad, Calif.). The remaining beads (40 μl) were processed for analysis by mass spectrometry.

[3] = test system: HCT116 colon cancer cell line; experiment: HCT116 cytotoxicity assay (WST-1, 72 hours); format: cell-based; conditions: Homo sapiens, HCT-116, read-out: IC50 (concentration resulting in a 50% reduction in cell viability), HCT116 cells
Experimental: The compounds of the invention were tested in the following cytotoxicity assay to detect anti-cancer activity. This assay determined viability of various cell lines, when treated with a test compound, by determining the metabolic activity of proliferating cells using the tetrazolium salt WST. While assays conducted with HCT116 colon cancer cell line cells were generally used to compare the relative efficacy of the compounds being tested, OVCAR8 and NCI/ADR-Res cell lines were also used according to the same procedure.
MATERIALS: • A. 10% FBS/L-glutamine/NEAA/HEPES/Na-Pyruvate/RPMI, phenol-free; • B. HCT116, OVCAR8 or NCI/ADR-Res cell lines (new vial thawed every 8-10 weeks); • C. Test compounds, typically 50 mM stocks diluted in DMSO; • D. Clear, flat, TC-surface bottomed 96-well microplates (Corning #3595); • E. WST-1: Dojindo, W201 (powder).
METHODS: • 1. […]
• b) Without removing culture medium, 0.4 μl of a 250× concentrated solution of test compound in growth media was added to HCT116, OVCAR8 or NCI/ADR-Res plates. Plates were returned to incubator and left to incubate for 72 hours. • c) 10 μL of prepared WST-1 was added to treated cells and allowed to incubate at 37° C. for 90 minutes. • d) Absorbances at 490 and 650 nm were read and viability of treated cells relative to DMSO control was determined.

[4] = target: T2, JAK1 (Homo sapiens, UniProt P23458); experiment: In vitro binding assays
T2 construct: Cellular proteins were prepared by mild sonication in lysis buffer; endogenous in cells

[5] = target: JNK (Homo sapiens, UniProt P45983); experiment: In vitro binding assays
[6] = target: T1, Aurora A; experiment: In vitro binding assays

Chain of FER (P16591 whole entry, species assumed): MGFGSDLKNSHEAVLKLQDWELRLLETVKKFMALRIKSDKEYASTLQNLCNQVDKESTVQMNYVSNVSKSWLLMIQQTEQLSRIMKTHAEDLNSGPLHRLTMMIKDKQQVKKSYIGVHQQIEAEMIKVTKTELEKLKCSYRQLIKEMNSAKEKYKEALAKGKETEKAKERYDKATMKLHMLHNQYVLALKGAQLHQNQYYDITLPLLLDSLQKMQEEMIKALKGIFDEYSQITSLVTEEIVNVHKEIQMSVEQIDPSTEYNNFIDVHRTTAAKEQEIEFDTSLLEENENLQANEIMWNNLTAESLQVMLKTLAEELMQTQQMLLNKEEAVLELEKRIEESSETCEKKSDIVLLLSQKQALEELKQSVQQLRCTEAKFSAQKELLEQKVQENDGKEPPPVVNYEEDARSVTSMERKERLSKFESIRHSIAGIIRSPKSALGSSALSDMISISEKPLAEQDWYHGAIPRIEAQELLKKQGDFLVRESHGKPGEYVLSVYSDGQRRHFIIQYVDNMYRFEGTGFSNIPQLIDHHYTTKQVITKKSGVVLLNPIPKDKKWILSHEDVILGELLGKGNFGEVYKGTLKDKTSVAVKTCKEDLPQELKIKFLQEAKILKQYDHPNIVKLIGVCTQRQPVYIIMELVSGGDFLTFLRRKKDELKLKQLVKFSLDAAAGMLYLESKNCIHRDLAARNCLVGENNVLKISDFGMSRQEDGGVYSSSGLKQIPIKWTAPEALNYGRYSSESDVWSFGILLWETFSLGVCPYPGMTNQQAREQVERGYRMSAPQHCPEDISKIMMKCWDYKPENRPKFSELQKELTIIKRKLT
Chain of JNK (P45983 whole entry): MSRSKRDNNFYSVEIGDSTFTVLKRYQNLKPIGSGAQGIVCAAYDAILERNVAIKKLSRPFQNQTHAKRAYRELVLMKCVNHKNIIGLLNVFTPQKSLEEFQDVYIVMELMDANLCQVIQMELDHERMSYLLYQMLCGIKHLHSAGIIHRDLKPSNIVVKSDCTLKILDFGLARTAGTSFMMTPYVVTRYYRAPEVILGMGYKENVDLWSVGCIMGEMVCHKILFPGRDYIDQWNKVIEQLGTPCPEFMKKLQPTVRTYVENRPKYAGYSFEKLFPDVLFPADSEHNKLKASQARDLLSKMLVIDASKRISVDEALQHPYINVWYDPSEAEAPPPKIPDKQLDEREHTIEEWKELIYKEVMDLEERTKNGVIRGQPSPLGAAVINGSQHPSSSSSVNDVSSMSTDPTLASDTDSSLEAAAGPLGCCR
T2 sequence (P23458 whole entry, species assumed): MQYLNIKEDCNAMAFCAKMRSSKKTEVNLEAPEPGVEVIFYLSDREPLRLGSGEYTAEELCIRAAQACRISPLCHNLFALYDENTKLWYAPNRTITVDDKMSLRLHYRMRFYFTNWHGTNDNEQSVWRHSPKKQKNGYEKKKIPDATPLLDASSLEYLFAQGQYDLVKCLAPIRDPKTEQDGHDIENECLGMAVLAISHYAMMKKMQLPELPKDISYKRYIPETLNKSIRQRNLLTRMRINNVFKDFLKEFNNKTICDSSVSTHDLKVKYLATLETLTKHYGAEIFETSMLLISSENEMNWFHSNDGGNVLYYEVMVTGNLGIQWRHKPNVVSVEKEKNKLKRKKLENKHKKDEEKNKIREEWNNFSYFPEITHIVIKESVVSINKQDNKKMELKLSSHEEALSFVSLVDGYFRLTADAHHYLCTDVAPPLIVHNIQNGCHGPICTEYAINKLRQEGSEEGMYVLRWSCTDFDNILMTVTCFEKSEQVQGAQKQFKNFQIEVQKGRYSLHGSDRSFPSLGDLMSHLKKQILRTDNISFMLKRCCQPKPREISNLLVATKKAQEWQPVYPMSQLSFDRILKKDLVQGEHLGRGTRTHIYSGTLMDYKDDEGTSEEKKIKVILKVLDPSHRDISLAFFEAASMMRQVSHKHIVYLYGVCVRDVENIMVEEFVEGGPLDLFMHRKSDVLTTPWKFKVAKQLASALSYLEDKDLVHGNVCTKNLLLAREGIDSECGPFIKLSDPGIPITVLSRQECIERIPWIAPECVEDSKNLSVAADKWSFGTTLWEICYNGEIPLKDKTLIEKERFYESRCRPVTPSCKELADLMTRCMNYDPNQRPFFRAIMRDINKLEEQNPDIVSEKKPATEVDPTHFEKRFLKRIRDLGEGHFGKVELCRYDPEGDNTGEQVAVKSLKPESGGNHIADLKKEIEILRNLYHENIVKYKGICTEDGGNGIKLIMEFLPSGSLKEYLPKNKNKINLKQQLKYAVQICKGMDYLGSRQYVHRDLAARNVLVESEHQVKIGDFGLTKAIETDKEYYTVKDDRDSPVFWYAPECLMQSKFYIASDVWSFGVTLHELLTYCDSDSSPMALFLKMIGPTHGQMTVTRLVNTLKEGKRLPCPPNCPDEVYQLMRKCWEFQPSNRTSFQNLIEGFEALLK

IC50 [1]: 15 nM | binding of Aurora A from cell lysates to bead-coupled compound [2]: found to bind | IC50 [4]: 320 nM | IC50 [5]: 57 nM | IC50 [6]: 420 nM
SMILES: NCCCOc1ccc(Nc2nc(NC3CCCCC3)c3nc[nH]c3n2)cc1 [N2-[4-(3-aminopropoxy)phenyl]-N-6-cyclohexyl-9H-purine-2,6-diamine]
IC50 [3]: 1200 nM
